Assay [1] is described as follows: TRPM1 promoter luciferase reporter signal decrease, dose response, MITF inhibitor project, cell-based, SK-MEL-5, dry powder, set 9 (AID 651588). It counts as functional.
Assay [2] can be described thus: MALME3 melanoma cell viability reduction, dose response, orthogonal assay for MITF inhibitor project, CellTiter-Glo luminescence, dry powder, set 5 (AID 651584). It is filed as functional, cell-based. The settings on record: MALME-3.
The nature of assay [3]: MITF Orthogonal Assay: MALME3 CTG Assay Measured in Cell-Based System Using Plate Reader - 2084-04_Inhibitor_Dose_DryPowder_Activity_Set6. It counts as functional. The note with it: MALME-3.
Assay [4] is described as follows: TRPM1 promoter luciferase reporter signal decrease, dose response, MITF inhibitor project, cell-based, SK-MEL-5, dry powder, set 8 (AID 624430). It is filed as functional.
Assay [5] is described as follows: SK-MEL-5 parental cell viability reduction, dose response, orthogonal assay for MITF inhibitor project, CellTiter-Glo luminescence, dry powder, set 8 (AID 651586). It counts as functional, cell-based.
The nature of assay [6]: MITF: Counter assay: A375 proliferation Measured in Cell-Based System Using Plate Reader - 2084-03_Inhibitor_Dose_DryPowder_Activity_Set8. It is filed as functional. The settings on record: A-375.
Assay [7] in a line: A375 melanoma cell viability loss, dose response, counter-screen for MITF modulator project, CellTiter-Glo luminescence, dry powder, set 9 (AID 651591). The note with it: A-375. It counts as functional, cell-based.
Assay [8] in a line: MITF Orthogonal Assay: SK-MEL-5 CTG Assay Measured in Cell-Based System Using Plate Reader - 2084-02_Inhibitor_Dose_DryPowder_Activity_Set7. It counts as functional.
The target in assay [9] is T1, Sentrin-specific protease 7 (Homo sapiens, UniProt Q9BQF6).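 Note: Luminescence-based dose-response confirmation of ultra-high-throughput screening hits, measuring inhibition of SENP7.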
T1 sequence (Q9BQF6 whole entry): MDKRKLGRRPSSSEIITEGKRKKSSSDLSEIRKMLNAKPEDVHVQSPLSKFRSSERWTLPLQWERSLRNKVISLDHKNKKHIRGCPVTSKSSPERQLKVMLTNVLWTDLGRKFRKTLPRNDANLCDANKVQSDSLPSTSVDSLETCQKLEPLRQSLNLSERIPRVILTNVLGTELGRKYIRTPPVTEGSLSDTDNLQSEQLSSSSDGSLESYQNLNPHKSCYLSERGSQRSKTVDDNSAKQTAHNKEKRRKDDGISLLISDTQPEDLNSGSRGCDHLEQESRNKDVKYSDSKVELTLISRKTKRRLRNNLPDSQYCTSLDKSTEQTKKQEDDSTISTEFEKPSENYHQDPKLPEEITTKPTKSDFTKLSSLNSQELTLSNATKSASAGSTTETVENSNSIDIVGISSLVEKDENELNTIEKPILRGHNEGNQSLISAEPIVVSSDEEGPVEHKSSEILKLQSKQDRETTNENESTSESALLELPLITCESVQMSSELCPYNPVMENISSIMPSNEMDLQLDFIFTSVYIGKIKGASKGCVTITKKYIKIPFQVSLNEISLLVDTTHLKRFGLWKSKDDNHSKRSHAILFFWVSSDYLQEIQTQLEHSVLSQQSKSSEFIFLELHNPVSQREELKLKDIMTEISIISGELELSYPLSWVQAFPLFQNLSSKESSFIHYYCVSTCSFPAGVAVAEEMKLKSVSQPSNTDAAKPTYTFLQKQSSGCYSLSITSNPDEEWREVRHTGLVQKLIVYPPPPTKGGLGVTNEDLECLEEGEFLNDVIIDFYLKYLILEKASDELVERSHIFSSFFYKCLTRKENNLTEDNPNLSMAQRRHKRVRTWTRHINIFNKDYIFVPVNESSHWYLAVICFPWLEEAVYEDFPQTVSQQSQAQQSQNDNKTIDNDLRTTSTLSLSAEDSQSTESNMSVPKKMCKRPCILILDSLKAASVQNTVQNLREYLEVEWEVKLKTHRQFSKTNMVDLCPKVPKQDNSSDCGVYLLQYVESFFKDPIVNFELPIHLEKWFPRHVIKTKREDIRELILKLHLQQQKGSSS
It is filed as functional.

Assay [10] addresses T2, Sentrin-specific protease 8 (Homo sapiens, UniProt Q96LD8).
T2 sequence (Q96LD8 whole entry): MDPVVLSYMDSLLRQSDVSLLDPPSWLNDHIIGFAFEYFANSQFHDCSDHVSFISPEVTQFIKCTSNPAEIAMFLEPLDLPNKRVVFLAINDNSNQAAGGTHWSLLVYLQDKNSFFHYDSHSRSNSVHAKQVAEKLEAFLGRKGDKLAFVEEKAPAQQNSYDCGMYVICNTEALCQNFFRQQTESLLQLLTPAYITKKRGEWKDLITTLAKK
It counts as functional.

Assay [11] deals with T3, Caspase-3 (Homo sapiens, UniProt P42574).
T3 sequence (P42574 whole entry): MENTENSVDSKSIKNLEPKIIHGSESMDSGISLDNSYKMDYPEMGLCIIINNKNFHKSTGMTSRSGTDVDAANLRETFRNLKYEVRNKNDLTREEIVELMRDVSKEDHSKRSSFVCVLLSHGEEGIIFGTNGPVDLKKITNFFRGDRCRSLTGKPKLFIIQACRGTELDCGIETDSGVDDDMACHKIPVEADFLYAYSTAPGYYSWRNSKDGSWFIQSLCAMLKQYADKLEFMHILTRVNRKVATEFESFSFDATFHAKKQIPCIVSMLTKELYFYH
It counts as functional.

Assay [12] addresses T4, Sentrin-specific protease 6 (Homo sapiens, UniProt Q9GZR1).
T4 sequence (Q9GZR1 whole entry): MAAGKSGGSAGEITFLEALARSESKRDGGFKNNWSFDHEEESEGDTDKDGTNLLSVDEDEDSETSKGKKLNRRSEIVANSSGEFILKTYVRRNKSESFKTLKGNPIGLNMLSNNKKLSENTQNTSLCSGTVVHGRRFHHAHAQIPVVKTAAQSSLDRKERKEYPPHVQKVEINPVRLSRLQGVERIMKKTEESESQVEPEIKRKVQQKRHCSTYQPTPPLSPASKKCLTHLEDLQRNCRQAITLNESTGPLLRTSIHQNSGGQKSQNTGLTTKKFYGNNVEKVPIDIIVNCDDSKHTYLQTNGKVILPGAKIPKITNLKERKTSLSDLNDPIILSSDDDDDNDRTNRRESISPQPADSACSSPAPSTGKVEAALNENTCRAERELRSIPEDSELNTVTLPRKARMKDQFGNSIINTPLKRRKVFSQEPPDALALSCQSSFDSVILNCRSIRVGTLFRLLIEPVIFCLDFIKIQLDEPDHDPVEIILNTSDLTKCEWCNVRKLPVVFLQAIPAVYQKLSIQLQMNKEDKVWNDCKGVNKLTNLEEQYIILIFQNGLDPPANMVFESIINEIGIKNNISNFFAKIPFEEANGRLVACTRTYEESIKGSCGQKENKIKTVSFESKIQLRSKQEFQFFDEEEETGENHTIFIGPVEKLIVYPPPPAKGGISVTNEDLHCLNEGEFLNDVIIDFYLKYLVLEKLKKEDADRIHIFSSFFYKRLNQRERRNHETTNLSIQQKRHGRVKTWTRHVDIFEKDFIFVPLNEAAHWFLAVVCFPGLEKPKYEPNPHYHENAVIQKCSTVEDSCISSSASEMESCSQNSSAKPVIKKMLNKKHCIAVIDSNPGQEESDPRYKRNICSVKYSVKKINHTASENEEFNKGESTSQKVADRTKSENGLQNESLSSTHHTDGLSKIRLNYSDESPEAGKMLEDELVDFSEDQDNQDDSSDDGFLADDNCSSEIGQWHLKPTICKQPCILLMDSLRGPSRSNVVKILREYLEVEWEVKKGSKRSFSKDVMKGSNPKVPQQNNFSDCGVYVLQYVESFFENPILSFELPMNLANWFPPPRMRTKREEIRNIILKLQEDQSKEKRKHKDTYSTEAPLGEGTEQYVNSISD
It is filed as functional.

Assay [13] concerns the target Mitochondrial peptide methionine sulfoxide reductase (Bos taurus, UniProt P54149). The assay can be described thus: Absorbance-based biochemical high throughput dose response assay for activators of Methionine sulfoxide reductase A (MsrA). It is filed as functional.
The next assay addresses Caspase-9 (Homo sapiens, UniProt P55211). As to the kind of experiment: caspase-9 enzyme inhibition, dose response, selectivity assay for caspase-6 inhibitor project, biochemical, fluorescence, plate reader, cherry-picked samples (AID 743293).
The target of the next assay is Caspase-7 (Homo sapiens, UniProt P55210). The assay can be described thus: human caspase-7 inhibitors, dose response, selectivity assay for caspase-6 inhibitor project, biochemical, DEVD-R110 fluorescence, cherry-pick (AID 743295). It counts as […].
Chain of Caspase-7 (P55210 24-198 limits assumed): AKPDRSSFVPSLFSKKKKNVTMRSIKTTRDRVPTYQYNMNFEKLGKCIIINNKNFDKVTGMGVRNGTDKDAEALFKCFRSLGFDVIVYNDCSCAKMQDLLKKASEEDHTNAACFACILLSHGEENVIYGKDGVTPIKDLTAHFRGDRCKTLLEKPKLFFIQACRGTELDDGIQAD
Chain of Caspase-7 (P55210 207-303 limits assumed): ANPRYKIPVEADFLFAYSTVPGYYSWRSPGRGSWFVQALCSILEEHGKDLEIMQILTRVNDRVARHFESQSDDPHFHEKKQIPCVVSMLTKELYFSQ
Another assay concerns the target T5, Caspase-6 (Homo sapiens, UniProt P55212).
T5 sequence (P55212 whole entry): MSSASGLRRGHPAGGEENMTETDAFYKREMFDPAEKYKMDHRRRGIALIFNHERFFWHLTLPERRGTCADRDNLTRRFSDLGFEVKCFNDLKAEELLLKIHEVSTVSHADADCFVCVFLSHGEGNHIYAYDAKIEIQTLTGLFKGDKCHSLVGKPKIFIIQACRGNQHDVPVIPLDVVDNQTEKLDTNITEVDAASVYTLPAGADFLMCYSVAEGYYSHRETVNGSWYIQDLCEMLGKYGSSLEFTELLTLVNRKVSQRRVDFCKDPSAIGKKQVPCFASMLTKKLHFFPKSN
The assay can be described thus: human caspase-6 inhibitors, dose response, biochemical, VEID-R110 fluorescence, cherry-pick (AID 720632).

Assay [14] addresses Tyrosyl-DNA phosphodiesterase 2 (Homo sapiens, UniProt O95551). As to the kind of experiment: human TDP2 enzyme inhibitors, dose response, biochemical, epi absorbance, IC50 (AID 743297).
The subject of the next assay is H9c2. The assay can be described thus: cells. It counts as functional, cell-based. The note with it: Rattus norvegicus, H9c2, Myocardium.
The target in a further assay is Caspase-8 (Homo sapiens, UniProt Q14790). The assay can be described thus: caspase-8 inhibition counter-screen, dose response, selectivity assay for caspase-6 inhibitor project, biochemical, Z-IETD-R110 fluorescence, cherry-picked samples (AID 743294).
Chain of Caspase-8 (Q14790 217-374 limits assumed): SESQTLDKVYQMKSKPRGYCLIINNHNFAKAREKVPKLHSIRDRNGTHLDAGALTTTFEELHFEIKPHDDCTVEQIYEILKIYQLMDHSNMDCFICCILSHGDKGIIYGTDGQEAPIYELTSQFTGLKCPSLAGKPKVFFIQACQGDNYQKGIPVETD
Chain of Caspase-8 (Q14790 385-479 limits assumed): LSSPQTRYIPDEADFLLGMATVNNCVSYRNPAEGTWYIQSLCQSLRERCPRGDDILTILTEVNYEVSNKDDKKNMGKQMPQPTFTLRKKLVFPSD
Assay [15] addresses T3, Caspase-3. The assay can be described thus: caspase-3 enzyme inhibitors, selectivity check, dose response, selectivity assay for caspase-6 allosteric inhibitor project, biochemical, fluorescence, cherry-picked samples (AID 743291).

Results on two compounds are retold here after ChEMBL document CHEMBL1201862, “PubChem BioAssay data set” (2004).

Activity calls are given as the source filed them.

Chain of Mitochondrial peptide methionine sulfoxide reductase (P54149 whole entry): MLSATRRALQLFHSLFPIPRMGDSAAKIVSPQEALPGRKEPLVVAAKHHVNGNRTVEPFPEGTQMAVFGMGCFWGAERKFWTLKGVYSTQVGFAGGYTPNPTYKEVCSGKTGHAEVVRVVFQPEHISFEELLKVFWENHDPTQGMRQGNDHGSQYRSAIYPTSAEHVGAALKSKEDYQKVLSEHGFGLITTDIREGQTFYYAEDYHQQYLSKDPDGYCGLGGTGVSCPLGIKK
Chain of Tyrosyl-DNA phosphodiesterase 2 (O95551 whole entry): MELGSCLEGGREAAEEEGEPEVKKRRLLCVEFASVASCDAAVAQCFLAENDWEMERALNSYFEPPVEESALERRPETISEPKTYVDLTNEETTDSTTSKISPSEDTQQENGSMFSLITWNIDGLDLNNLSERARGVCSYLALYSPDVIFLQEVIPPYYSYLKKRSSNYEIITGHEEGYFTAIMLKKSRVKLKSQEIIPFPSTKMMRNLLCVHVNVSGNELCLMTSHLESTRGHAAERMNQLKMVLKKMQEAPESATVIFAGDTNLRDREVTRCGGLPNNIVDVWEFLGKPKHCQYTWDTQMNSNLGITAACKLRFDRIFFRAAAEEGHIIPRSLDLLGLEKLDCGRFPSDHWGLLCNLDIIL
Chain of Caspase-9 (P55211 1-315 limits assumed): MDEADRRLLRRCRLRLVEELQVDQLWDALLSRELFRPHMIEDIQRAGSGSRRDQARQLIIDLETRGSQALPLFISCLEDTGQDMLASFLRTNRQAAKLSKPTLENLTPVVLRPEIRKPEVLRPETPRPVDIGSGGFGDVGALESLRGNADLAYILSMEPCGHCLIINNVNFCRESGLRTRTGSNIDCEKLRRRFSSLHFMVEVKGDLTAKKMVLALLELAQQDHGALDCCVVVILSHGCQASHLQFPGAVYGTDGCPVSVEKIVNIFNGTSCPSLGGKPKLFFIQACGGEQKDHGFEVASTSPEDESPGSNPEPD
Chain of Caspase-9 (P55211 331-416 limits assumed): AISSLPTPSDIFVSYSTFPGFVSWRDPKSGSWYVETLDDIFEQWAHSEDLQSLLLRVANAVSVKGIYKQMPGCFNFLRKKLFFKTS

`CN1CCN(C2=C(Nc3ccc(F)cc3F)C(=O)c3ccccc3C2=O)CC1`: the AC50 in assay [1] was 17.5 µM (active); in assay [2] it was 25.4 µM (active); in [3] it was 25.4 µM (active); in [4], 5.36 µM (active); in assay [5], > 70 µM (inactive); in assay [6] it was > 70 µM (inactive). Moreover, the AC50 in assay [7] is > 70 µM (inactive); in assay [8] it was 9.87 µM (active).
Take `O=C(OCc1nnc(-c2ccccc2)o1)c1ccc([N+](=O)[O-])s1`: the concentration for half-maximal inhibition (IC50) in assay [9] was 10.1 µM (active); in [10] it was 5.56 µM (active); at Caspase-3 [11], 14.3 µM (active); in assay [12] it was 6.79 µM (active); in [14], 24.2 µM (inactive); with H9c2 it was > 79 µM (inactive). In addition, the EC50 in assay [13] was 33.1 µM (inactive). For the same compound, the AC50 is 18.4 µM (active) at Caspase-9; 14.6 µM (active) at Caspase-7; 3.66 µM (active) on Caspase-6; 23.3 µM (active) on Caspase-8; 6.9 µM (active) at Caspase-3 [15].
